Data reported in patent US4200650A, “2-Amino-cyclopent-1-ene-1-thiocarboxylic acid-disulfides to treat noradrenergic malfunctions” (Richter Gedeon Vegyeszeti Gyar Rt., priority 1976, dated 1980).

How the values were obtained:
Type in all cases: in vivo, male Wistar rats
dopamine-β-hydroxylase [1] = assay: Determination of noradrenaline and dopamine levels of brain (dopamine-β-hydroxylase inhibiting effect)
Protocol: (§1) The dopamine-β-hydroxylase inhibiting effects of the new compounds according to the invention were examined by the following tests:
(§2) The tests were performed on male Wistar rats weighing 150 to 200 g. The dopamine-β-hydroxylase inhibiting effects of the compounds were evaluated by determining the change of noradrenaline, dopamine and adrenaline levels of the cerebrum, heart, spleen and adrenal gland. The serotonine and 5-hydroxy-indolylacetic acid levels of the cerebrum were also determined. The measurements were performed as follows:
(§3) The animals were decapitated, the cerebrum, heart, spleen and adrenal gland were removed quickly, and the organs were frozen by placing them onto a metal sheet cooled with dry ice. The frozen organs were stored for maximum one night at -20° C.
Determination of the noradrenaline, dopamine, serotonine and 5-hydroxy-indolylacetic acid contents of brain
The brains were homogenized in 10 parts by volume of 0.4 n perchloric acid. The homogenized mixture was stored at -20° C. overnight, thereafter it was thawed and centrifuged as described above. A sample of the homogenized mixture corresponding to 0.5 g of brain was removed, the pH of the sample was adjusted to 8.0±0.1 with 0.1 molar tris-buffer of the above composition, and the sample was processed as described above for the determination of the noradrenaline content of heart and spleen, with the difference that 1.5 ml of 0.05 n perchloric acid were applied as eluting agent. 0.5 ml of the eluate were applied to determine the noradrenaline and dopamine contents. The measurement was performed as described above, with the difference that samples of 0.5 ml were applied for the recording of the fluorescency of noradrenaline. The residua was placed for 50 minutes into a drying oven heated to 100° C., thereafter the sample was cooled with ice water, and the fluorescency of dopamine was recorded at wavelengths of 325 nm (excitation) and 380 nm (emission).
In a further test series the serotonine and 5-hydroxy-indolylacetic acid contents were also determined, beside the determination of the noradrenaline and dopamine content, from the same sample. In this instance the brains were homogenized in 10 ml of 75% ethanol, 0.2 ml of EDTA-Na2 and 5% of ascorbic acid were added to the homogenized mixtures, and the homogenized mixtures were maintained at -20° C. overnight. The mixtures were centrifuged as described above, and 5.0 ml samples of the supernatant were removed. The samples were diluted with equal volumes of distilled water, and poured onto ion exchange columns of 0.5×1.5 cm dimensions, filled with buffered Amberlite CG-30 (200 to 400 mesh). The columns were washed with 5 ml of distilled water followed by 1.0 ml of 0.2 n hydrochloric acid, and the first effluent and the aqueous wash were collected for the determination of 5-hydroxy-indolylacetic acid. Elution was continued with further 1.2 ml of 0.2 n hydrochloric acid in order to remove noradrenaline, dopamine and serotonine. Samples of 0.3 ml were used for the determinations.
Noradrenaline and dopamine were determined by the method of Shellenberger, modified as described above, whereas serotonine was determined by the method of Curzon et al. (Brit. J. Pharmacol. 39, 653/1970/). The basic method was modified as follows: A 0.5% solution of ortho-phthal(di)aldehyde in absolute ethanol was diluted with 10 n hydrochloric acid to 50-fold of its original volume, and 0.6 ml of the resulting 0.01% ortho-phthal(di)aldehyde solution were added immediately to 0.5 ml of the serotonine-containing sample. The sample was placed into a hot water bath for 10 minutes, thereafter cooled with tap water, and the fluorescency was recorded at wavelengths of 360 nm (excitation) and 490 nm (emission).
In the tests disulfiram, 2,2-dipyridyl, bis(1-methyl-4-homopiperazinyl-thriocaronyl)-disulfide, sodium diethyldithiocarbamate and N-phenyl-N'-(2-thiazolyl)-thiourea were applied as reference substances. […]

dopamine-β-hydroxylase [2] = assay: Determination of the noradrenaline content of heart; details: ± standard error
Protocol: as §1, §2, §3
(§4) Determination of the noradrenaline content of heart and spleen
(§5) The organs were weighed in frozen state and then homogenized in 5.0 ml of 0.4 n perchloric acid containing 0.05% of EDTA-Naa and 0.1% of Na2 S2 O5. The homogenized mixtures were centrifuged as described above for the treatment of adrenal gland, the supernatants were decanted, and the pH was adjusted to 8.0±0.1 with a 0.1 molar tris buffer containing 20 g/l of NaOH and 25 g/l of EDTA-Na2. 100 mg of prepared Al2 O3 (Anton et al.: J. Pharm. Ther. 138, 360/1962/) were added to the samples, and the mixtures were shaken mechanically for 20 minutes. Thereafter Al2 O3 was washed with 2×10 ml of distilled water, and noradrenaline was eluted with 1.0 ml of 0.05 n perchloric acid. 0.5 ml samples of the eluate were applied for the determination of noradrenaline. Noradrenaline was determined according to the method of Shellenberger et al. (Anal. Biochem. 39, 356/1971/), with the following modifications of the basic procedure: 0.5 ml of 0.1 molar Na-K-phosphate buffer, containing 9 g/l of EDTA-Na2, were added to 0.5 ml of the eluate, and the catecholamines (noradrenaline in the examination of heart and spleen and noradrenaline and dopamine in the examination of the cerebrum) were oxidized with 0.1 ml of a 0.1 n iodine solution in 5% potassium iodide. After exactly 2 minutes oxidation was stopped by adding 0.25 ml of a 2.5% sodium sulfite solution in 4.4 n aqueous sodium hydroxide to the mixture. 2 minutes after the introduction of the alkaline sulfite solution 0.2 ml of concentrated acetic acid were added to the samples, upon which the pH decreased to 4.4 to 4.5 Thereafter the samples were placed for 5 minutes into a drying oven heated to 100° C., and then the samples were cooled with ice water. The fluorescency of noradrenaline was measured with an OPTON spectrophotometer at wavelengths of 380 nm (excitation) and 490 nm (emission).
(§6) In the tests disulfiram, 2,2-dipyridyl, bis(1-methyl-4-homopiperazinyl-thriocaronyl)-disulfide, sodium diethyldithiocarbamate and N-phenyl-N'-(2-thiazolyl)-thiourea were applied as reference substances. The values indicated in Table 1 are the percentages in relation to the amine levels of the controls measured in the same tests (± standard error). The statistical calculations were performed on a TPA/i type computer, using Student's t test.

dopamine-β-hydroxylase [3] = assay: Determination of the noradrenaline content of spleen; details: ± standard error
Protocol: as §1, §2, §3, §4, §5, §6

dopamine-β-hydroxylase [4] = assay: Determination of the adrenaline content of adrenal gland; details: ± standard error
Protocol: as §1, §2, §3
Determination of the adrenaline content of adrenal gland
The adrenal glands were freed from fat and homogenized in 3.0 ml of ice-cold 0.4 n perchloric acid. The homogenized mixtures were centrifuged for 10 minutes at 0° C. with a speed of 3200 r.p.m. using a Janetzky K-70 type centrifuge. 0.05 ml samples were taken from the supernatant, and the adrenaline level was determined directly by the method of Laverty et al. (Anal. Biochem. 22, 269/1968/).
as §6

[5] = i.p., 100 mg/kg, 4 hours, ± standard error
[6] = i.p., 200 mg/kg, 4 hours, ± standard error
[7] = i.p., 200 mg/kg, 8 hours, ± standard error
[8] = i.p., 50 mg/kg, 4 hours, ± standard error
[9] = p.o., 500 mg/kg, 4 hours, ± standard error
[10] = p.o., 500 mg/kg, 8 hours, ± standard error
[11] = i.p., 400 mg/kg, time not given

Row | SMILES | Brain DA (dopamine) level, percentages in relation to the controls (dopamine-β-hydroxylase [1]; [5]) [%] | Brain NA (noradrenaline) level, percentages in relation to the controls (dopamine-β-hydroxylase [1]; [5]) [%] | Brain DA (dopamine) level, percentages in relation to the controls (dopamine-β-hydroxylase [1]; [6]) [%] | Brain NA (noradrenaline) level, percentages in relation to the controls (dopamine-β-hydroxylase [1]; [6]) [%] | Brain DA (dopamine) level, percentages in relation to the controls (dopamine-β-hydroxylase [1]; [7]) [%] | Brain NA (noradrenaline) level, percentages in relation to the controls (dopamine-β-hydroxylase [1]; [7]) [%] | Heart NA (noradrenaline) level, percentages in relation to the controls (dopamine-β-hydroxylase [2]; i.p., 100 mg/kg, 4 hours) [%] | Heart NA (noradrenaline) level, percentages in relation to the controls (dopamine-β-hydroxylase [2]; i.p., 200 mg/kg, 4 hours) [%] | Heart NA (noradrenaline) level, percentages in relation to the controls (dopamine-β-hydroxylase [2]; i.p., 200 mg/kg, 8 hours) [%] | Spleen NA (noradrenaline) level, percentages in relation to the controls (dopamine-β-hydroxylase [3]; i.p., 200 mg/kg, 4 hours) [%] | Spleen NA (noradrenaline) level, percentages in relation to the controls (dopamine-β-hydroxylase [3]; i.p., 200 mg/kg, 8 hours) [%] | Adrenal gland AD (adrenaline) level, percentages in relation to the controls (dopamine-β-hydroxylase [4]; i.p., 100 mg/kg, 4 hours) [%] | Adrenal gland AD (adrenaline) level, percentages in relation to the controls (dopamine-β-hydroxylase [4]; i.p., 200 mg/kg, 4 hours) [%] | Adrenal gland AD (adrenaline) level, percentages in relation to the controls (dopamine-β-hydroxylase [4]; i.p., 200 mg/kg, 8 hours) [%] | Brain DA (dopamine) level, percentages in relation to the controls (dopamine-β-hydroxylase [1]; [9]) [%] | Brain NA (noradrenaline) level, percentages in relation to the controls (dopamine-β-hydroxylase [1]; [9]) [%] | Heart NA (noradrenaline) level, percentages in relation to the controls (dopamine-β-hydroxylase [2]; p.o., 500 mg/kg, 4 hours) [%] | Adrenal gland AD (adrenaline) level, percentages in relation to the controls (dopamine-β-hydroxylase [4]; p.o., 500 mg/kg, 4 hours) [%] | other results
1 | NC1=C(C(=S)SSC(=S)C2=C(N)CCC2)CCC1 [Compound M-1] | 121.2±5.8 | 69.5±12.1 | 124.5±1.9 | 56.7±5.9 | 109.0±5.9 | 56.5±6.3 | 86.5±3.7 | 82.5±5.4 | 83.2±9.5 | 92.6±12.4 | 91.2±12.6 | 87.2±6.7 | 70.9±5.8 | 60.2±3.2 | – | – | – | – | –
2 | CCCCNC1=C(C([O-])=S)CCC1.CCCCNC1=C(C([O-])=S)CCC1.[Zn+2] [Compound M-3, 2-(N-butyl)-amino-cyclopent-1-ene-thiocarboxylic acid-disulfide(zinc salt)] | 121.3±6.1 | 73.5±3.2 | – | – | – | – | 91.5±8.1 | – | – | – | – | 60.5±3.6 | – | – | 99.2±5.0 | 98.8±2.5 | 108.8±3.2 | 100.3±8.3 | Brain DA (dopamine) level, percentages in relation to the controls (dopamine-β-hydroxylase [1]; [8]): 112.2±12.0%; Brain NA (noradrenaline) level, percentages in relation to the controls (dopamine-β-hydroxylase [1]; [8]): 85.0±7.1%; Heart NA (noradrenaline) level, percentages in relation to the controls (dopamine-β-hydroxylase [2]; i.p., 50 mg/kg, 4 hours): 84.5±4.1%; Adrenal gland AD (adrenaline) level, percentages in relation to the controls (dopamine-β-hydroxylase [4]; i.p., 50 mg/kg, 4 hours): 66.3±5.5%
3 | COCCNC1=C(C(=S)SSC(=S)C2=C(NCCOC)CCC2)CCC1 [Compound M-4, 2-(N-methoxyethyl)-amino-cyclopent-1-ene-thiocarboxylic acid disulfide] | 131.5±8.9 | 41.9±2.7 | 134.6±4.0 | 39.6±4.9 | 120.6±5.8 | 28.5±1.4 | 91.8±5.9 | 91.7±9.2 | 75.7±3.7 | 69.9±16.9 | 61.9±9.9 | 77.5±6.3 | 96.3±6.7 | 97.0±7.9 | 114.5±2.4 | 73.6±2.8 | 86.3±10.1 | 96.3±6.0 | Brain DA (dopamine) level, percentages in relation to the controls (dopamine-β-hydroxylase [1]; [10]): 111.0±4.0%; Brain NA (noradrenaline) level, percentages in relation to the controls (dopamine-β-hydroxylase [1]; [10]): 51.2±2.8%; Heart NA (noradrenaline) level, percentages in relation to the controls (dopamine-β-hydroxylase [2]; p.o., 500 mg/kg, 8 hours): 74.0±8.4%; Spleen NA (noradrenaline) level, percentages in relation to the controls (dopamine-β-hydroxylase [3]; i.p., 100 mg/kg, 4 hours): 81.4±10.8%; Spleen NA (noradrenaline) level, percentages in relation to the controls (dopamine-β-hydroxylase [3]; p.o., 500 mg/kg, 4 hours): 103.1±18.9%; Spleen NA (noradrenaline) level, percentages in relation to the controls (dopamine-β-hydroxylase [3]; p.o., 500 mg/kg, 8 hours): 101.0±14.3%; Adrenal gland AD (adrenaline) level, percentages in relation to the controls (dopamine-β-hydroxylase [4]; p.o., 500 mg/kg, 8 hours): 88.1±5.1%
4 | S=C(SSC(=S)C1=C(NC2CCCCC2)CCC1)C1=C(NC2CCCCC2)CCC1 [Compound M-5, 2-(N-cyclohexyl)-amino-cyclopent-1-ene-thiocarboxylic acid disulfide] | – | – | 124.2±4.0 | 64.6±1.8 | 116.2±3.3 | 76.9±2.2 | – | 94.7±6.8 | 89.5±3.0 | 83.2±8.9 | 68.7±6.7 | – | 109.0±2.3 | 105.6±3.3 | – | – | – | – | –
5 | CCN(CC)C(=S)[S-].[Na+] [DDC-Na, sodium diethyldithiocarbamate, reference compound] | – | – | – | – | – | – | – | – | – | – | – | – | – | – | – | – | – | – | Brain DA (dopamine) level, percentages in relation to the controls (dopamine-β-hydroxylase [1]; [11]): 120%; Brain NA (noradrenaline) level, percentages in relation to the controls (dopamine-β-hydroxylase [1]; [11]): 64.1%
